Experimental data from the NIST ThermoML archive (doi:10.1021/je020130i).
Numbers after ± are expanded uncertainties.

Conditions: 363.15 K; Liquid

Structure (SMILES) | vapor or sublimation pressure
CNC=O [N-methylformamide] | 2.1 ± 0.09 kPa [middle of 4 runs]
CC#N [acetonitrile] | 131.21 ± 1.7 kPa
c1ccccc1 [benzene] | 137.28 ± 1.8 kPa
Clc1ccccc1 [chlorobenzene] | 28.33 ± 0.42 kPa
CCCCCC [hexane] | 188.05 ± 2.4 kPa
